We go through one compound from PMC9950073, “Alleviation of arthritis through prevention of neutrophil extracellular traps by an orally available inhibitor of protein arginine deiminase 4” (Scientific Reports, 2023).

Molecules are shown by their SMILES.

For data set [1], the system named is histone H3 citrullination in human neutrophils. The experiment in a line: Citrullination assay in human neutrophils (citrullinated H3 ELISA). In kind it is cell-based. To be noted: Neutrophil. An excerpt: All blood samples from healthy donors who participated in this study were obtained after informed consent in accordance with relevant guidelines and regulations given by the ACE Independent ethics committee for Jubilant Biosys Ltd and Office of Clinical Investigations at Boston Children’s Hospital. The ACE Independent ethics committee, Bangalore, approved the use of human whole blood/PBMC/Enriched Subset in Jubilant Biosys Ltd investigations, Drug Controller General of India (DCGI) Reg No. ECR/141/Indt/KA/2013. Briefly, 10 mL K2EDTA vacutainers were used to collect fresh blood from healthy donors (BD vacutainer, Catalog No: BD 367525). A total of 50 ml of blood was taken from a single, healthy human donor. Neutrophils were isolated from human blood using the EasySep Direct Human Neutrophil Isolation Kit, according to the manufacturer's instructions (Stem Cell Technology, Catalog No: 19666). […]
Citrullinated H3 Enzyme linked immunosorbent Assay (ELISA) was performed as per manufacturer’s instructions (Cayman chemicals, Catalog No: 501620). Neutrophils obtained as mentioned above were counted and cell suspension was prepared in complete RPMI media. […] IC50 values were determined by sigmoidal dose–response curve (variable slope) in Graph Pad Prism 5 software.
(In general: An ELISA detects its analyte on a solid surface through an enzyme-linked reagent.)

In a further data set the target is T1, CYP1A2 (Homo sapiens, UniProt P05177).
T1 construct: from tissue; host or cells: human liver microsomes
T1 sequence (P05177 1-516): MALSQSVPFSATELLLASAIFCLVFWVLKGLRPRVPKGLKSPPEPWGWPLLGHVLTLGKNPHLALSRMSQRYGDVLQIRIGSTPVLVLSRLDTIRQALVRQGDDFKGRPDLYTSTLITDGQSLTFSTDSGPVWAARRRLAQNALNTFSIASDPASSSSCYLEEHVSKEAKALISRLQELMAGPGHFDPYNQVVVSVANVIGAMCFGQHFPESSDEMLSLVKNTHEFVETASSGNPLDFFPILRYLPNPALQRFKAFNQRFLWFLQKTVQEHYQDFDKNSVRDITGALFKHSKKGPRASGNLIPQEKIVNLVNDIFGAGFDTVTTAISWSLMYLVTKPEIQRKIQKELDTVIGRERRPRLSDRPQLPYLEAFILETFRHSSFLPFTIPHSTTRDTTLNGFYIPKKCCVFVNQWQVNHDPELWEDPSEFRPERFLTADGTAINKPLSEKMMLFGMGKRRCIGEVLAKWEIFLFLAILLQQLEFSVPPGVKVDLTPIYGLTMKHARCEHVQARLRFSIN
The experiment in a line: CYP inhibition in human liver microsome, CYP1A2. It is filed as in vitro ADME. How it is done: (§1) CYP inhibition: Human liver microsome (0.1–0.5 mg/mL for various CYPs) and appropriate probe substrates (2.5–20 µM) were incubated in potassium phosphate buffer with or without JBI-589 for 5 min at 37 °C. The reaction was initiated by addition of NADPH (1 mM), incubated at 37 °C for 10 min and quenched (0.5% Formic acid in internal standard (IS) containing ACN). Samples were then centrifuged and taken for LC–MS/MS analysis. Percent change in metabolite formation for each substrate under above conditions using formula: Percent inhibition = [1 − (test area ratio/control area ratio)] *100.
For orientation: Microsomes from liver hold many membrane-bound enzymes, among them those of drug oxidation.

For another data set, the target named is T2, CYP3A4 (Homo sapiens, UniProt P08684).
T2 construct: from tissue; host or cells: human liver microsomes
T2 sequence (P08684 whole entry): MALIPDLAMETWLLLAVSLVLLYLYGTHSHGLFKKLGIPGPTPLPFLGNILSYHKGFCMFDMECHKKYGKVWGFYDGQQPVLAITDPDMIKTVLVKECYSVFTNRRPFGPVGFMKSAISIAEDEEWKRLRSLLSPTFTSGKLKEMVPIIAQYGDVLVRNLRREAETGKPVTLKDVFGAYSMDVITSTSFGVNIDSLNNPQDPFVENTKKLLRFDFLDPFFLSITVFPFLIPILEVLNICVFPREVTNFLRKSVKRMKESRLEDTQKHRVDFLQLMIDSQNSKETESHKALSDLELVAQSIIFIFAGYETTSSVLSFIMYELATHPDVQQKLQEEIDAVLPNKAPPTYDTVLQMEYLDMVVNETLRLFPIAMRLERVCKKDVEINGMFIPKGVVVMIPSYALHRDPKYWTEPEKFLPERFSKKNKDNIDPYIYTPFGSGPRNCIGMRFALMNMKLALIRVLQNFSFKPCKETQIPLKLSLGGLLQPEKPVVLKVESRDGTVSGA
The experiment in a line: CYP inhibition in human liver microsome, CYP3A4. In kind it is in vitro ADME. On the procedure:
as §1

Another data set concerns the target T3, CYP2C9 (Homo sapiens, UniProt P11712).
T3 construct: from tissue; host or cells: human liver microsomes
The data set can be described thus: CYP inhibition in human liver microsome, CYP2C9. It is filed as in vitro ADME. On the procedure:
as §1

Another data set relates to PBMCs. The data set can be described thus: Cell Titer Glo viability assay, PBMC. To be noted: 24 h, up to 10 µM. In kind it is cell-based, human. How it is done:
In a K2EDTA vacutainer, 50 mL blood from a healthy human donor was collected, diluted 1:1 with PBS, and gently layered on Histopaque-1077. The tube was centrifuged at 400 g for 30 min at room temperature in a swinging bucket rotor without brakes or acceleration. After centrifugation, the tubes were gently removed from the centrifuge to avoid disturbing the layers of RBC at the bottom, PBMC in the middle, and clear supernatant at the top. Plasma and platelet-rich upper layer was aspirated using a sterile pipette leaving the mononuclear cell layer (buffy coat) undisturbed at the interphase. This buffy coat layer was transferred with care to a fresh conical 50 mL tube, resuspended in PBS buffer and the tube was centrifuged for 10 min at 300 g at room temperature, and the resultant cell pellet was resuspended in complete RPMI medium. After repeating this step twice, the resultant isolated cells were used for the experiments.
The CellTiter-Glo luminescent cell viability assay was performed on neutrophils/peripheral blood mononuclear cells according to the manufacturer’s instructions (Promega, catalog number: G7570)[35]. Breifly, 0.25 million cells of Neutrophils /PBMC were seeded in a black 96 well clear bottom plate. Compound was added at desired concentrations in 1% DMSO. […] Luminescence was recorded with Perkin Elmer envision 2103 multilabel reader.
Background: Cellular ATP, detected with luciferase, serves as a proxy for viable cell number.

The mark [2] stands for this setting: predicted from % inhibition, text says major CYPs tested.

T3 sequence (P11712 whole entry): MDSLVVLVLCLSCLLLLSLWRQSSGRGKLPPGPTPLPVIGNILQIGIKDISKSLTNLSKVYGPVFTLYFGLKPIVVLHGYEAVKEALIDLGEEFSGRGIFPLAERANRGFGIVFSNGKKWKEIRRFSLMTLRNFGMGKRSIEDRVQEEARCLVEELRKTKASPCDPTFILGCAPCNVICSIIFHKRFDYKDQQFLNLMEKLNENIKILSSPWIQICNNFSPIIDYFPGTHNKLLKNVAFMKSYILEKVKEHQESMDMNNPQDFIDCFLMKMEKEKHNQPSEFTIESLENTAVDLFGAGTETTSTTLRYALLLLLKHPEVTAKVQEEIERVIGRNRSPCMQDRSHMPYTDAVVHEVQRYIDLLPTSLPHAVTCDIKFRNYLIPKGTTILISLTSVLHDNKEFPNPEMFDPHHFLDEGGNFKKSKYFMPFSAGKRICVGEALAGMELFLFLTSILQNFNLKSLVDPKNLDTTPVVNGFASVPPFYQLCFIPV

Consider `Cc1c(-c2cc3ccccc3n2Cc2ccc(F)cc2)nc2cc(C(=O)N3CCC[C@@H](N)C3)ccn12` [JBI-589, (R)-(3-aminopiperidin-1-yl)(2-(1-(4-fluorobenzyl)-1H-indol-2-yl)-3-methylimidazo[1,2-a]pyridin-7-yl)methanone], for which the IC50 in data set [1] (Fig. 1c, human neutrophils, calcium ionophore, x axis μM) is 0.146 µM; on CYP1A2 (setting [2]) it was greater than 10 µM; at CYP3A4 (setting [2]) it was greater than 10 µM; at CYP2C9 (setting [2]), greater than 10 µM. Further, the EC50 in data set [1] (human neutrophils induced by 25 µM calcium ionophore, ELISA, read-out: EC50, inhibition of histone H3 citrullination) was determined as 0.146 µM. Further, the inhibition at 10 min, 10 µM at CYP1A2 (human liver microsomes, 10 µM, human liver microsome, read-out: CYP1A2 inhibition (% inh @10 µM)) was less than 50%; on CYP3A4 (human liver microsomes, 10 µM, human liver microsome, read-out: CYP3A4 inhibition (% inh @10 µM)), less than 50%; on CYP2C9 (human liver microsomes, 10 µM, human liver microsome, read-out: CYP2C9 inhibition (% inh @10 µM)), less than 50%. For the same compound, in the data set with PBMCs, the “viability of PBMCs” value is recorded as “minimal or no changes”.

One may read the IC50 as the concentration needed to halve the response being measured. Usually EC50 stands for the concentration giving half of the maximal effect. As a reminder, the inhibition is the change of the read-out against control, counted positive when it falls.
